Assay results from patent US20260167614A1, “IDENTIFICATION OF SMALL MOLECULES THAT RECRUIT AND ACTIVATE RNASE L” (UNIVERSITY OF FLORIDA RESEARCH FOUNDATION, INCORPORATED, priority 2022, published 2026).
Changes are numbered by the printed parent chain.

How the values were obtained:
[1] = target: T1, RNase L (Homo sapiens, UniProt Q05823); assay: FRET-based in vitro RNA cleavage assay (RNase L activation); assay type: biochemical; conditions: for Relative RNA Cleavage (cleavage of fluorescently labeled RNA, RNase L activation): dose response, fluorescence normalized to 50 μM of 6
T1 construct: made in house; host or cells: Rosetta DE3 E. coli
T1 sequence (Q05823 1-741): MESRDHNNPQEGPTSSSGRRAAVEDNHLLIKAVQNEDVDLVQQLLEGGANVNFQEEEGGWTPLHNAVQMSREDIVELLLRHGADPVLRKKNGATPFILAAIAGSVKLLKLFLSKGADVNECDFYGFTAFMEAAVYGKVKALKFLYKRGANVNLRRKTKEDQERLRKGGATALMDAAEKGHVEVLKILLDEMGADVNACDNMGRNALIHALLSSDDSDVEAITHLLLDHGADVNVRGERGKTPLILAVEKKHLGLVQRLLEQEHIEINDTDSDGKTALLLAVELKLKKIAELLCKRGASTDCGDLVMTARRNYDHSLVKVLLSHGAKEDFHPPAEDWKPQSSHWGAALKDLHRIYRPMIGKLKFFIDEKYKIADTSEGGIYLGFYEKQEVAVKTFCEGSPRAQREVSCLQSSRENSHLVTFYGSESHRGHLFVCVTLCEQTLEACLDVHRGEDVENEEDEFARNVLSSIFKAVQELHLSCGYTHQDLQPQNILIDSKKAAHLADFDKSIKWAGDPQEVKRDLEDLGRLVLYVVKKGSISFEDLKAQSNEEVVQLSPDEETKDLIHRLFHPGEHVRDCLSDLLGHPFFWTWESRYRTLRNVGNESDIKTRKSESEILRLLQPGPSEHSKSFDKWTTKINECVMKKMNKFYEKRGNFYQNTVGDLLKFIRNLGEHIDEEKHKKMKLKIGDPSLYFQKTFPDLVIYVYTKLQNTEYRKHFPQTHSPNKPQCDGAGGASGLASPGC
Excerpt: The four compounds with the highest confidence (enrichment scores>300 and copy number>25) were selected for further study. The compounds were re-synthesized without the encoding DNA tag and were studied for RNase L activation using a fluorescence-based in vitro assay, completed as previously described.^16 In brief, the assay uses an dually labeled RNA [5′ fluorescein (6-FAM) and 3′ black hole quencher (BHQ)] that harbors multiple preferred substates for RNase L (FIG. 2A).^16 In the presence of a binder that activates RNase L, the enzyme cleaves the RNA, resulting in an increased fluorescence signal. […] 2 and 3 are similar in structure, differing only by the first building block, phenylglycine in 2 and indoline in 3 (FIG. 2C).
FRET-Based In Vitro RNA Cleavage Assay. Samples were prepared as previously described.^3 Briefly, an RNA construct with multiple preferred RNase L cleavage sites^7 (5′ 6-FAM-[…]-3′ BHQ; 100 nM final concentration) was folded in 1× RNase L Assay Buffer (25 mM Tris-HCl, pH 7.4, and 100 mM NaCl) for 1 min at 95° C. followed by snap cooling on ice for 10 min. Following cooling, β-mercaptoethanol (7 mM), ATP (50 μM), and MgCl2 (1 mM) were added. Compound or DMSO (1%; vehicle) was added to the folded RNA, and the samples were incubated for 15 min. Recombinant GST-RNase L-His was then added to the solution (50 nM final concentration), affording a total volume of 33 μL. Technical triplicates (10 μL) were dispensed into 384-well low volume non-binding plate (Corning 4515), and the samples were incubated in the dark for 1 h. Fluorescence was measured using a Tecan infinite M1000 Pro plate reader using an excitation wavelength of 485 nm, emission wavelength of 520 nm, and gain of 100. Data are reported as “Relative RNA Cleavage”, normalizing fluorescence to the highest level of cleavage observed—upon addition of 50 μM of 6, which was set to 1.

[2] = target: T1, RNase L; assay: RNase L dimerization in vitro by Western blotting; assay type: biochemical
Protocol: The position within 2 suitable for conjugation was then determined. […] Therefore, this position was derivatized and assessed for RNase L activation. […] A polyethylene glycol (PEG) linker terminated with a t-butyl ester was attached to yield 5 (FIG. 2C).

[3] = target: T2, RNase L (Homo sapiens, UniProt Q05823, H672N); assay: Saturation transfer difference (STD) NMR; assay type: binding; conditions: 3 μM protein, 300 μM compound
T2 construct: GST (N, cleaved yes); made in house; host or cells: BL21 AI Escherichia coli
T2 sequence (Q05823 1-741 H672N): T1 sequence (Q05823 1-741) with H672N
Protocol: (§1) To assess further the ability of this compound to bind to RNase L, saturation transfer difference (STD) nuclear magnetic resonance (NMR)^20 and circular dichroism (CD) spectroscopic studies were conducted with 6, a compound similar in structure to 5 and a potential intermediate in the synthesis of a resulting RiboTAC (FIGS. 2C & 6B-6C).
(§2) Saturation Transfer Difference (STD) NMR. NMR spectra were acquired at 25° C. on a 600 MHz Bruker Avance III spectrometer equipped with a cryoprobe. Samples were prepared by drying 6 (120 nmol) to a solid and resuspending in deuterated DMSO (4 μL). […] The STD spectra were recorded as an interleaved experiment (n=2) with one experiment including a saturating pulse at −40 ppm for 2 s and one at 0.8 ppm for 2 s. Both spectra were processed with identical phasing before calculating the difference spectra (A) using TopSpin 4.0.6 (Bruker).

[4] = system: lysozyme; assay: Saturation transfer difference (STD) NMR, control protein; assay type: binding; conditions: 3 μM protein, 300 μM compound
Protocol: as §1, §2

[5] = target: T2, RNase L; assay: Circular dichroism (CD) spectroscopy; assay type: binding; conditions: 10 μM inactive RNase L, 75 μM compound
Protocol: as §1
Circular Dichroism (CD) Spectroscopy. […] CD wavelength scans were completed from 190 to 260 nm. […] The spectra were plotted and compared in GraphPad Prism.

[6] = target: T3, pre-miR-21 and RNase L (Homo sapiens, UniProt Q05823, H672N); assay: Co-immunoprecipitation of pre-miR-21 and RNase L; assay type: binding; conditions: WT 32P-pre-miR-21, inactive RNase L
T3 construct: GST (N, cleaved yes); made in house; host or cells: BL21 AI Escherichia coli
T3 sequence (Q05823 1-741 H672N): T1 sequence (Q05823 1-741) with H672N
Protocol: (§3) Co-Immunoprecipitation of pre-miR-2I and RNase L. Approximately 20,000 cpm of 32P 5′-end labeled WT or mutant pre-miR-21 or an RNA construct where the A-bulge was mutated to a base pair (5′-[…] UGGGCUGU-3′) was folded in 1× RNase L Assay Buffer for 1 min at 95° C. and cooled on ice for 10 min. Following cooling, β-mercaptoethanol (7 mM), ATP (50 μM), and MgCl2 (1 mM) were added to the solution. The solution was aliquoted, and compounds were incubated in solution for 15 min (1% DMSO final concentration). […] Beads were then washed with 1×PBS supplemented with 0.02% (v/v) Tween-20. Radioactive signal in the supernatant and associated with the beads was quantified by a Beckman Coulter LS6500 Liquid Scintillation Counter. Relative RNA enrichment was calculated by comparing the radioactive signal associated with beads compared to the total radioactive signal from the beads plus the supernatant.

[7] = target: T4, pre-miR-21 mutant and RNase L (Homo sapiens, UniProt Q05823, H672N); assay: Co-immunoprecipitation of mutant pre-miR-21 and RNase L; assay type: binding; conditions: base paired mutant pre-miR-21, inactive RNase L
T4 construct: GST (N, cleaved yes); made in house; host or cells: BL21 AI Escherichia coli
T4 sequence (Q05823 1-741 H672N): T1 sequence (Q05823 1-741) with H672N
Protocol: as §3

[8] = system: phosphorylation of extracellular signal-regulated kinase (ERK); assay: Western blot of pERK versus ERK (RTK signaling); assay type: cell-based; conditions: Homo sapiens; CRISPR-Control sgRNA MDA-MB-231 cells; read-out: IC50 for inhibition of phosphorylation of ERK
Protocol: Quantification of Protein Levels by Western Blotting. MDA-MB-231 cells were treated as described in “Cell Culture.” After treatment, the medium was removed, and the cells were washed with 1× Dulbecco's phosphate-buffered saline (DPBS). Total protein was extracted using Mammalian Protein Extraction Reagent (M-PER, Thermo Scientific) according to the manufacturer's protocol. Protein concentration was measured using a Pierce Micro BCA Protein Assay kit (Fisher Scientific). Approximately 20 μg total protein was loaded onto a Tris-glycine gel with a 5% polyacrylamide stacking layer and a 10% polyacrylamide resolving layer. The gel was run at 140 V for ˜1.5 h in 1× Running Buffer (25 mM Tris base, pH 8.3, 190 mM glycine, and 0.1% (w/v) SDS). After electrophoresis, the protein was transferred to a PVDF membrane using 1× Transfer Buffer (25 mM Tris base, pH 8.3, 190 mM glycine, and 20% (v/v) methanol). The membrane was then washed with 1×TBST (Tris-buffered saline with 0.1% (v/v) Tween 20) and blocked in a solution of 5% (w/v) milk in 1×TBST for 30 min with shaking at room temperature. The membrane was then incubated overnight at 4° C. in a solution of primary antibody diluted in 1×TBST containing 5% (w/v) milk. […]

## CCCCCCCCc1ccsc1-c1cccc(-c2ccc(CN(C)[C@H](C(=O)NC)c3ccccc3)cc2)c1 [Compound 2, (S)—N-methyl-2-(methyl((3′-(3-octylthiophen-2-yl)-[1,1′-biphenyl]-4-yl)methyl)amino)-2-phenylacetamide]
[1]
  Relative RNA Cleavage (cleavage of fluorescently labeled RNA, RNase L activation): induced dose-dependent RNA cleavage to a greater extent than 1
[2]
  RNase L dimerization: induces RNase L dimerization

## CNC(=O)[C@H](c1ccccc1)N(C)Cc1ccc(-c2cccc(-c3sccc3N)c2)cc1 [Compound 4, (S)-2-(((3′-(3-aminothiophen-2-yl)-[1,1′-biphenyl]-4-yl)methyl)-(methyl)amino)-N-methyl-2-phenylacetamide]
[1]
  Relative RNA Cleavage (cleavage of fluorescently labeled RNA, RNase L activation): enhanced RNA cleavage compared to 2

## CNC(=O)[C@H](c1ccccc1)N(C)Cc1ccc(-c2cccc(-c3sccc3NC(=O)CCOCCOCCOCCC(=O)OC(C)(C)C)c2)cc1 [Compound 5, tert-butyl (S)-3-(2-(2-(3-((2-(4′-((methyl(2-(methylamino)-2-oxo-1-phenylethyl)-amino)methyl)-[1,1′-biphenyl]-3-yl)thiophen-3-yl)amino)-3-oxopropoxy)ethoxy)-ethoxy) propanoate]
[1]
  Relative RNA Cleavage (cleavage of fluorescently labeled RNA, RNase L activation): retained RNase L activation activity

## CNC(=O)[C@H](c1ccccc1)N(C)Cc1ccc(-c2cccc(-c3sccc3NC(=O)CCOCCOCCOCCC(=O)O)c2)cc1 [Compound 6, (S)-3-(2-(2-(3-((2-(4′-((methyl(2-(methylamino)-2-oxo-1-phenylethyl)amino)methyl)-[1,1′-biphenyl]-3-yl)thiophen-3-yl)amino)-3-oxopropoxy)ethoxy)ethoxy)propanoic acid]
[1]; 50 μM, highest level of cleavage observed, set to 1
  Relative RNA Cleavage: 1
[3]
  STD-NMR transfer of magnetization: transfer of magnetization from the compound to RNase L
[4]
  STD-NMR transfer of magnetization: no transfer was observed
[5]
  CD signal of RNase L upon addition of compound: increase in signal intensity at 220 nm
[6]
  co-immunoprecipitation of RNA with RNase L: Neither RNA was pulled down
[7]
  co-immunoprecipitation of RNA with RNase L: Neither RNA was pulled down

## CN1CCN(c2ccc3nc(-c4c(N)c5c(F)cccc5[nH]c4=O)[nH]c3c2)CC1 [Dovitinib, reference compound]
[8]
  IC50: ~1000 nM
